Source: article PMC7161706 (Acta Pharmaceutica Sinica. B, 2019)

What was measured:
GuPAL1 = GuPAL1 (Glycyrrhiza uralensis, UniProt A0A6B7HYR5); test: product by HPLC-Q-TOF-MS; assay type: biochemical; conditions: 1 mmol/L substrate, pH 8.0, 30 °C, 10 h
GuC4H1 = molecular target: T1, GuC4H1 (Glycyrrhiza uralensis, UniProt A0A6B7HXZ5); test: yeast feeding, product by HPLC-Q-TOF-MS; assay type: cell-based; conditions: 20 μmol/L fed, 30 °C, 12 h; ATR1 reductase in WAT11
T1 sequence (A0A6B7HXZ5 1-505): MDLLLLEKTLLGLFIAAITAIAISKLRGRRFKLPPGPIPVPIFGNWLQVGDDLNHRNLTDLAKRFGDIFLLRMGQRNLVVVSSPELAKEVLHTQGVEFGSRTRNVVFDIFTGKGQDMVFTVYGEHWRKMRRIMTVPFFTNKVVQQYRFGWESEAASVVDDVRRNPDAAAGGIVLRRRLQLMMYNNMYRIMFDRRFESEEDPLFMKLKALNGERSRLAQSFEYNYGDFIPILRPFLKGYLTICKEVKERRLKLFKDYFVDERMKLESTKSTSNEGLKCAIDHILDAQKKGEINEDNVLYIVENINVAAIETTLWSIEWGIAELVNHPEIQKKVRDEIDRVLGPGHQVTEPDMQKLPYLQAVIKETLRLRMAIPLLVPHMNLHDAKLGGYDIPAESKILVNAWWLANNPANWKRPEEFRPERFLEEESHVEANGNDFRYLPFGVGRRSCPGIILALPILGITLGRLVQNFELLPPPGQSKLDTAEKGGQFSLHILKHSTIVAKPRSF

Sequence of GuPAL1 (A0A6B7HYR5 1-783 limits assumed): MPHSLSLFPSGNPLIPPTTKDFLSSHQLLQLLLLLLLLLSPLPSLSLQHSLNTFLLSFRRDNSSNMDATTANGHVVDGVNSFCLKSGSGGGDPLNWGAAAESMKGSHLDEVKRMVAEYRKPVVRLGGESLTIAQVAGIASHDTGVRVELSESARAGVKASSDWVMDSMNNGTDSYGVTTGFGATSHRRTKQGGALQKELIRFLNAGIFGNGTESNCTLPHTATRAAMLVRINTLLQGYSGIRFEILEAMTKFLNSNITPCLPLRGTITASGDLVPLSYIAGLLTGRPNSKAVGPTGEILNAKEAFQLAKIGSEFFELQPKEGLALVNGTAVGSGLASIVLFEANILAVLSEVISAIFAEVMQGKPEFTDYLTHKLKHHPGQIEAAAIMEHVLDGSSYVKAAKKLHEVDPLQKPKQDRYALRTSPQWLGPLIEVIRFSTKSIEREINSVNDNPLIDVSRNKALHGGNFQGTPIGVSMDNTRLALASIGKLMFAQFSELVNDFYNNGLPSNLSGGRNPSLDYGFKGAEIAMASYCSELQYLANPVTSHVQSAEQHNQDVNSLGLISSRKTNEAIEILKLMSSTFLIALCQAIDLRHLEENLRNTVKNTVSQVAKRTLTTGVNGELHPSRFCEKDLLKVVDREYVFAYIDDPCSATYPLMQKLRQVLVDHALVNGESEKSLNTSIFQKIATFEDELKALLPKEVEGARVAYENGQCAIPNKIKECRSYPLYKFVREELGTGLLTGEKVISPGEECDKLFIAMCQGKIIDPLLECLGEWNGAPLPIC

SMILES | product by HPLC-Q-TOF-MS (cinnamic acid) (GuPAL1) | yeast feeding, product by HPLC-Q-TOF-MS (p-coumaric acid) (GuC4H1)
N[C@@H](Cc1ccccc1)C(=O)O [Phe, phenylalanine] | incubation of the staring substrate phenylalanine with GuPAL1 yielded cinnamic acid | 
O=C(O)/C=C/c1ccccc1 [CiA, cinnamic acid] |  | GuC4H1 was able to produce p-coumaric acid upon feeding cinnamic acid and galactose
